Data reported in US10966426B2, “Herbicidal compositions comprising phenylpyrimidines” (BASF SE, priority 2016, dated 2021).

Key:
Type in all cases: in vivo
Poa annua = test: greenhouse pre-emergence treatment, POAAN; conditions: clomazone solo (CS 360 g/l), 20 DAT
Source text: (§1) The culture containers used were plastic pots containing loamy sand with approximately 3.0% of humus as substrate. The seeds of the test plants were sown separately for each species.
(§2) For the pre-emergence treatment, the active compounds, suspended or emulsified in water, were applied directly after sowing by means of finely distributing nozzles. The containers were irrigated gently to promote germination and growth and subsequently covered with transparent plastic hoods until the plants had rooted. This cover caused uniform germination of the test plants unless this was adversely affected by the active compounds.
(§3) Depending on the species, the plants were kept at 10-25° C. and 20-35° C., respectively.
(§4) The test period extended over 2 to 4 weeks. During this time, the plants were tended and their response to the individual treatments was evaluated.
(§5) Evaluation was carried out using a scale from 0 to 100. 100 means no emergence of the plants, or complete destruction of at least the above-ground parts, and 0 means no damage or normal course of growth. A good herbicidal activity is given at values of at least 70, and very good herbicidal activity is given at values of at least 85.
(§6) The respective stated components A and B, and if appropriate, C were formulated as a 10% by weight strength emulsion concentrate and, with addition of the amount of solvent system, introduced into the spray liquor used for applying the active compound. In the examples, the solvent used was water.
(§7) In the examples below, using the method of S. R. Colby (1967) “Calculating synergistic and antagonistic responses of herbicide combinations”, Weeds 15, p. 22ff., the value E, which is expected if the activity of the individual active compounds is only additive, was calculated. E=X+Y−(X·Y/100) where X=effect in percent using herbicide A at an application rate a; • Y=effect in percent using herbicide B at application rate b; • E=expected effect (in %) of herbicide A+herbicide B at application rates a+b.

Alopecurus myosuroides = test: greenhouse pre-emergence treatment, ALOMY; conditions: clomazone solo (CS 360 g/l), 30 gai/ha, 20 DAT
Source text: as §1, §2, §3, §4, §5, §6, §7

Avena fatua = test: greenhouse pre-emergence treatment, AVEFA; conditions: Avena fatua, 480 h, read-out: % activity
Procedure, shortened: (§8)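 Pre-emergence spray of compounds, alone or as combinations formulated as 10% emulsion concentrate in water, directly after sowing in loamy sand (~3.0% humus); pots hooded until rooting, kept at 10-25° C or 20-35° C per species for 2 to 4 weeks. Damage scored 0-100 (100 = no emergence/complete destruction); Colby expected value E=X+Y−(X·Y/100).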

Helianthus annuus = test: greenhouse pre-emergence treatment, HELAN; conditions: Helianthus annuus, 480 h, read-out: % activity
Procedure, shortened: as §8

Lolium multiflorum = test: greenhouse pre-emergence treatment, LOLMU; conditions: Lolium multiflorum, 480 h, read-out: % activity
Procedure, shortened: as §8

Polygonum convolvulus = test: greenhouse pre-emergence treatment, POLCO; conditions: Fallopia convolvulus, 480 h, read-out: % activity
Source text: as §1, §2, §3, §4, §5, §6, §7

Setaria viridis = test: greenhouse pre-emergence treatment, SETVI; conditions: SETVI, 20 DAT
Procedure, shortened: as §8

Galium aparine = test: greenhouse pre-emergence treatment, GALAP; conditions: Galium aparine, 480 h, read-out: % activity
Procedure, shortened: as §8

Echinocloa crus-galli = test: greenhouse pre-emergence treatment, ECHCG; conditions: clomazone solo (CS 360 g/l), 120 gai/ha, 20 DAT
Source text: as §1, §2, §3, §4, §5, §6, §7

Digitaria sanguinalis = test: greenhouse pre-emergence treatment, DIGSA
Procedure, shortened: as §8

Bromus sterilis = test: greenhouse pre-emergence treatment, BROST; conditions: Bromus sterilis, 480 h, read-out: % activity
Procedure, shortened: as §8

Brachiaria decumbens = test: greenhouse pre-emergence treatment, BRADC; conditions: BRADC, 20 DAT; for % activity: clomazone solo (CS 360 g/l)
Procedure, shortened: as §8

Apera spica-venti = test: greenhouse pre-emergence treatment, APESV; conditions: clomazone solo (CS 360 g/l), 20 DAT
Source text: as §1, §2, §3, §4, §5, §6, §7

Ambrosia elatior = test: greenhouse pre-emergence treatment, AMBEL; conditions: AMBEL, 20 DAT; for % activity: clomazone solo (CS 360 g/l)
Procedure, shortened: as §8

How did the “% activity” value (Poa annua; 15 gai/ha) turn out when `CC1(C)CON(Cc2ccccc2Cl)C1=O` [clomazone] was run?
The value was 0%.

What about the “% activity” value (Poa annua; 30 gai/ha) of the same compound?
The value was 0%.

What about the “% activity” value (Poa annua; 60 gai/ha) of the same compound?
Its value is 30%.

What about the “% activity” value (Poa annua; 120 gai/ha) of the same compound?
Its value is 80%.

And the “% activity” value (Alopecurus myosuroides)?
Its value is 0%.

And the pest or weed control at 30 g/ha (Avena fatua)?
The pest or weed control at 30 g/ha was 0%.

What about the plant injury at 30 g/ha (Helianthus annuus) of the same compound?
Its plant injury at 30 g/ha is 10%.

What about the pest or weed control at 60 g/ha (Lolium multiflorum) of the same compound?
The pest or weed control at 60 g/ha was 40%.

And the pest or weed control at 120 g/ha (Lolium multiflorum)?
Its pest or weed control at 120 g/ha is 60%.

And the pest or weed control at 60 g/ha (Polygonum convolvulus)?
Its pest or weed control at 60 g/ha is 60%.

And the pest or weed control at 120 g/ha (Polygonum convolvulus)?
The pest or weed control at 120 g/ha was 75%.

And the “% activity” value (Setaria viridis; solo clomazone (CS 360 g/l) 30 gai/ha)?
The value was 0%.

And the “% activity” value (Setaria viridis; clomazone solo (CS 360 g/l), 60 gai/ha)?
Its value is 30%.

And the “% activity” value (Setaria viridis; clomazone solo (CS 360 g/l), 120 gai/ha)?
The value was 65%.

What about the “% activity” value (Setaria viridis; clomazone solo (CS 360 g/l), 125 gai/ha) of the same compound?
The value was 65%.

What about the pest or weed control at 30 g/ha (Galium aparine) of the same compound?
The pest or weed control at 30 g/ha was 80%.

And the “% activity” value (Echinocloa crus-galli)?
Its value is 90%.

What about the pest or weed control at 60 g/ha (Digitaria sanguinalis; Digitaria sanguinalis, 480 h, DIGSA, 20 DAT, solo clomazone (CS 360 g/l) 60 gai/ha) of the same compound?
Its pest or weed control at 60 g/ha is 0%.

And the pest or weed control at 120 g/ha (Digitaria sanguinalis; Digitaria sanguinalis, 480 h, DIGSA, 20 DAT, solo clomazone (CS 360 g/l) 120 gai/ha)?
Its pest or weed control at 120 g/ha is 30%.

And the pest or weed control at 15 g/ha (Digitaria sanguinalis; Digitaria sanguinalis, 480 h, read-out: % activity)?
Its pest or weed control at 15 g/ha is 0%.

And the “% activity” value (Digitaria sanguinalis; clomazone solo (CS 360 g/l), 120 gai/ha, 20 DAT, DIGSA)?
The value was 30%.

What about the pest or weed control at 30 g/ha (Bromus sterilis) of the same compound?
Its pest or weed control at 30 g/ha is 0%.

And the pest or weed control at 120 g/ha (Bromus sterilis)?
Its pest or weed control at 120 g/ha is 30%.

What about the pest or weed control at 15 g/ha (Brachiaria decumbens; Urochloa decumbens, 480 h, solo clomazone (CS 360 g/l) 15 gai/ha) of the same compound?
Its pest or weed control at 15 g/ha is 0%.

What about the pest or weed control at 30 g/ha (Brachiaria decumbens; Urochloa decumbens, 480 h, solo clomazone (CS 360 g/l) 30 gai/ha) of the same compound?
Its pest or weed control at 30 g/ha is 0%.

What about the pest or weed control at 60 g/ha (Brachiaria decumbens; Urochloa decumbens, 480 h, solo clomazone (CS 360 g/l) 60 gai/ha) of the same compound?
The pest or weed control at 60 g/ha was 0%.

And the pest or weed control at 120 g/ha (Brachiaria decumbens; Urochloa decumbens, 480 h, solo clomazone (CS 360 g/l) 120 gai/ha)?
The pest or weed control at 120 g/ha was 30%.

What about the “% activity” value (Brachiaria decumbens; 30 gai/ha) of the same compound?
Its value is 0%.

What about the “% activity” value (Brachiaria decumbens; 60 gai/ha) of the same compound?
Its value is 0%.

And the “% activity” value (Brachiaria decumbens; 120 gai/ha)?
Its value is 30%.

What about the “% activity” value (Apera spica-venti; 15 gai/ha) of the same compound?
The value was 20%.

What about the “% activity” value (Apera spica-venti; 120 gai/ha) of the same compound?
Its value is 65%.

What about the pest or weed control at 15 g/ha (Ambrosia elatior; Ambrosia artemisiifolia, 480 h, solo clomazone (CS 360 g/l) 15 gai/ha) of the same compound?
Its pest or weed control at 15 g/ha is 0%.

And the pest or weed control at 60 g/ha (Ambrosia elatior; Ambrosia artemisiifolia, 480 h, solo clomazone (CS 360 g/l) 60 gai/ha)?
Its pest or weed control at 60 g/ha is 10%.

And the pest or weed control at 120 g/ha (Ambrosia elatior; Ambrosia artemisiifolia, 480 h, solo clomazone (CS 360 g/l) 120 gai/ha)?
The pest or weed control at 120 g/ha was 10%.

What about the pest or weed control at 1250 g/ha (Ambrosia elatior; Ambrosia artemisiifolia, 480 h, solo clomazone (CS 360 g/l) 1250 gai/ha) of the same compound?
Its pest or weed control at 1250 g/ha is 10%.

And the “% activity” value (Ambrosia elatior; 60 gai/ha)?
Its value is 10%.

What about the “% activity” value (Ambrosia elatior; 120 gai/ha) of the same compound?
The value was 10%.
